US12281225B2, “Process for preparing stable polymers containing vinylimidazole” (BASF SE, priority 2018, dated 2025)

What was measured:
[1] = Analysis of active substance: preservative concentration before and after storage in VI-containing polymer solution; type: physicochemical; settings: for active-substance concentration, 0 d, RT: before storage; for active-substance concentration, 14 d, 40° C.: storage 14 d at 40° C.; for active-substance concentration, 28 d, 40° C.: storage 28 d at 40° C.; for active-substance concentration, 60 d 40° C.: storage 60 d at 40° C.
Outline: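 Preservatives (MIT, BIT, CMIT, OIT, DCOIT, iodopropynyl butyl carbamate) in aqueous vinylpyrrolidone–vinylimidazole copolymer solution quantified after dilution by isocratic RP18 chromatography with UV detection, using an acid-methanol eluent.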

[2] = Iodine color number according to DIN 6162:2014-09; type: physicochemical
[3] = Physical stability; visual assessment (color, turbidity, phase separation); type: physicochemical; design: key: ++: no discernible change with respect to color, turbidity or phase separation; +: marginal change in color number, somewhat increased Tyndall effect but no turbidity; 0: easily discernible increase in color number and moderate turbidity−no phase separation; −: turbidity and change in color number readily discernible by visual assessment; −−: strong color change with strong turbidity and incipient phase separation
Outline: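 Samples were inspected visually for color, turbidity and phase separation and scored on a five-step scale. Scores run from ++ (no discernible change) to −− (strong color change, strong turbidity, incipient phase separation).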

[4] = system: Bacteria: Escherichia coli, Staphylococcus aureus, Pseudomonas aeruginosa, Pseudomonas putida, Burkholderia cepacia, Alcaligenes faecalis; test: Preservation test with periodic inoculation, bacteria assessment; type: cell-based; settings: sample stored 60 d at 40° C.
Protocol: Microbiological results at the start (freshly formulated, i.e. 4-week test series is started immediately) and after 60 days of storage at 40° C. (i.e. the 4-week microbial testing is started with the sample stored at 40° C. for 60 days)
The test described below is carried out in order to ascertain the preserving effect of chemical preservatives in aqueous products and systems, the principle of the described method reflecting the efficacy of chemical preservatives with respect to pot-maintenance of aqueous products/systems under conditions corresponding to the use of laundry products/consumer products by the consumer. For this purpose, the preservatives to be tested are added in those concentrations which correspond to from the literature or to the manufacturer data from the suppliers (e.g. Thor, Speyer). In said test, our orientation was toward the upper range, which, with the exception of VI-containing polymers, had always led to excellent results in the case of aqueous polymers for laundry.
A constant microorganism load is achieved by periodic inoculation of the test batches. Before the swabs of each batch made respectively immediately in parallel with the inoculation. The assessment is made on the basis of the microbial growth of the streaks.
When carrying out said tests, 25 g of the polymer to be tested are weighed in each case into a vessel with a screw cap. The preservatives to be tested are each added in separate batches according to the specified use concentrations. An unpreserved product sample was used in each case for the growth control. Two days after the addition of the preservative, the samples are infected with 0.5 ml of inoculum (2% w/w). The titer of this inoculant solution is 10^9 organisms per ml. The following microorganisms are the test organisms for the preservation test:
• Escherichia coli • Staphylococcus aureus • Pseudomonas aeruginosa • Pseudomonas putida • Burkholderia cepacia • Alcaligenes faecalis Yeast: • Candida albicans • Candida valida • Rhodotorula rura • Saccharomyces cerevisiae
The test batches are inoculated four times altogether and once a week and are streaked on an agar plate once a week; the first streaking is done immediately before the new inoculation. Microbial growth on the agar surface is assessed after a three-day incubation at 25° C. As a precaution, negative swabs are additionally observed for a further three days and reassessed. The preserving effect is effected in a semiquantitative method via the growth of the individual streaks in accordance with the assessment from − via + to +++. The preservative result is repeatedly demonstrably robust, i.e. +++− defines the microbial growth.
When assessing the results, it is assumed that a preservative can be regarded as good if there are batches under the above-described laboratory conditions for a period of four weeks without microbial invasion of the sample, and that, even after the fourth inoculation, no microbial attacks occur growth can be identified. • −−: no growth • −: slight growth, max. 100 colonies • 0: moderate growth, max. 400 colonies • +: uniform growth with individual colonies still easily identifiable • ++: strong growth; too many colonies to be counted, already some extensive growth

[5] = Polymer P5 (HP56) with stabilizer

SMILES: Cn1sc(Cl)cc1=O [CMIT, 5-chloro-N-methylisothiazolin-3-one]
- active-substance concentration, 0 d, RT ([1]; in Polymer P1): 150 ppm
- active-substance concentration, 14 d, 40° C. ([1]; in Polymer P1): 94 ppm
- active-substance concentration, 28 d, 40° C. ([1]; in Polymer P1): 81 ppm
- active-substance concentration, 60 d 40° C. ([1]; in Polymer P1): 59 ppm
- active-substance concentration, 0 d, RT ([1]; in Polymer P2): 150 ppm
- active-substance concentration, 14 d, 40° C. ([1]; in Polymer P2): 108 ppm
- active-substance concentration, 28 d, 40° C. ([1]; in Polymer P2): 89 ppm
- active-substance concentration, 60 d 40° C. ([1]; in Polymer P2): 66 ppm
- active-substance concentration, 0 d, RT ([1]; in Polymer P3): 150 ppm
- active-substance concentration, 14 d, 40° C. ([1]; in Polymer P3): 117 ppm
- active-substance concentration, 28 d, 40° C. ([1]; in Polymer P3): 93 ppm
- active-substance concentration, 60 d 40° C. ([1]; in Polymer P3): 77 ppm
- active-substance concentration, 0 d, RT ([1]; in Polymer P4): 150 ppm
- active-substance concentration, 14 d, 40° C. ([1]; in Polymer P4): 111 ppm
- active-substance concentration, 28 d, 40° C. ([1]; in Polymer P4): 89 ppm
- active-substance concentration, 60 d 40° C. ([1]; in Polymer P4): 73 ppm
- active-substance concentration, 0 d, RT ([1]; in Polymer P5 (HP56)): 150 ppm
- active-substance concentration, 14 d, 40° C. ([1]; in Polymer P5 (HP56)): 94 ppm
- active-substance concentration, 28 d, 40° C. ([1]; in Polymer P5 (HP56)): 81 ppm
- active-substance concentration, 60 d 40° C. ([1]; in Polymer P5 (HP56)): 59 ppm
- active-substance concentration, 0 d, RT ([1]; in Polymer P6): 150 ppm
- active-substance concentration, 14 d, 40° C. ([1]; in Polymer P6): 91 ppm
- active-substance concentration, 28 d, 40° C. ([1]; in Polymer P6): 76 ppm
- active-substance concentration, 60 d 40° C. ([1]; in Polymer P6): 55 ppm
- active-substance concentration, 0 d, RT ([1]; in Polymer P7): 150 ppm
- active-substance concentration, 14 d, 40° C. ([1]; in Polymer P7): 96 ppm
- active-substance concentration, 28 d, 40° C. ([1]; in Polymer P7): 80 ppm
- active-substance concentration, 60 d 40° C. ([1]; in Polymer P7): 64 ppm
- active-substance concentration, 0 d, RT ([1]; in Polymer P8): 150 ppm
- active-substance concentration, 14 d, 40° C. ([1]; in Polymer P8): 94 ppm
- active-substance concentration, 28 d, 40° C. ([1]; in Polymer P8): 81 ppm
- active-substance concentration, 60 d 40° C. ([1]; in Polymer P8): 59 ppm
- active-substance concentration, 0 d, RT ([1]; in Polymer P9): 150 ppm
- active-substance concentration, 14 d, 40° C. ([1]; in Polymer P9): 82 ppm
- active-substance concentration, 28 d, 40° C. ([1]; in Polymer P9): 70 ppm
- active-substance concentration, 60 d 40° C. ([1]; in Polymer P9): 51 ppm
- Iodine color number, 60 d 40° C. ([2]; Polymer P1 with stabilizer): 6.2
- Iodine color number, start ([2]; Polymer P1 with stabilizer): 2.5
- Iodine color number, 60 d 40° C. ([2]; Polymer P2 with stabilizer): 8.6
- Iodine color number, start ([2]; Polymer P2 with stabilizer): 3.1
- Iodine color number, 60 d 40° C. ([2]; Polymer P3 with stabilizer): 8.5
- Iodine color number, start ([2]; Polymer P3 with stabilizer): 3.2
- Iodine color number, 60 d 40° C. ([2]; Polymer P4 with stabilizer): 8.9
- Iodine color number, start ([2]; Polymer P4 with stabilizer): 3.2
- Iodine color number, 60 d 40° C. [2, 5]: 9.0
- Iodine color number, start [2, 5]: 3.5
- Iodine color number, 60 d 40° C. ([2]; Polymer P6 with stabilizer): 9.1
- Iodine color number, start ([2]; Polymer P6 with stabilizer): 3.5
- Iodine color number, 60 d 40° C. ([2]; Polymer P7 with stabilizer): 9.1
- Iodine color number, start ([2]; Polymer P7 with stabilizer): 3.5
- Iodine color number, 60 d 40° C. ([2]; Polymer P8 with stabilizer): 9.3
- Iodine color number, start ([2]; Polymer P8 with stabilizer): 3.3
- Iodine color number, 60 d 40° C. ([2]; Polymer P9 with stabilizer): 13.9
- Iodine color number, start ([2]; Polymer P9 with stabilizer): 3.9
- Physical stability, 60 d 40° C.* ([3]; Polymer P1 with stabilizer): −−
- Physical stability, 60 d 40° C.* ([3]; Polymer P2 with stabilizer): −−
- Physical stability, 60 d 40° C.* ([3]; Polymer P3 with stabilizer): −
- Physical stability, 60 d 40° C.* ([3]; Polymer P4 with stabilizer): −−
- Physical stability, 60 d 40° C.* [3, 5]: −−
- Physical stability, 60 d 40° C.* ([3]; Polymer P6 with stabilizer): −−
- Physical stability, 60 d 40° C.* ([3]; Polymer P7 with stabilizer): −
- Physical stability, 60 d 40° C.* ([3]; Polymer P8 with stabilizer): −−
- Physical stability, 60 d 40° C.* ([3]; Polymer P9 with stabilizer): −−
- 60 d 40° C., bact. assess., 4th inoculation ([4]; Polymer P1): 0 (moderate growth, max. 400 colonies)
- 60 d 40° C., bact. assess., 4th inoculation ([4]; Polymer P2): +
- 60 d 40° C., bact. assess., 4th inoculation ([4]; Polymer P3): +
- 60 d 40° C., bact. assess., 4th inoculation ([4]; Polymer P4): +
- 60 d 40° C., bact. assess., 4th inoculation ([4]; Polymer P5 (HP56)): +
- 60 d 40° C., bact. assess., 4th inoculation ([4]; Polymer P6): +
- 60 d 40° C., bact. assess., 4th inoculation ([4]; Polymer P7): +
- 60 d 40° C., bact. assess., 4th inoculation ([4]; Polymer P8): 0 (moderate growth, max. 400 colonies)
- 60 d 40° C., bact. assess., 4th inoculation ([4]; Polymer P9): ++
